According to PubChem BioAssay AID330 (DTP/NCI, 2004):
Several values for one entry are separate records, joined by “and”; a condition that tells them apart may be missing. Equal entries are not always repeated. Toxic doses and inconclusive results are not listed.

Tested on: P388 leukemia ip, CD2F1 mice, survival T/C
Test: NCI In Vivo Anticancer Drug Screen. Data for tumor model P388 Leukemia (intraperitoneal) in CD2F1 (CDF1) mice
Conditions: endpoint: median survival time, higher = longer survival
How it was run: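 Mice carrying the transplanted tumor received test compound or vehicle. Survival was recorded in each group, and the value is the treated-group measurement divided by that of the vehicle-treated control group.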

[1] = dose: 50.0 mg/kg/injection, schedule: Q01DX009 (ip), vehicle: Klucel (hydroxypropylcellulose) (HPC)
[2] = dose: 100.0 mg/kg/injection, schedule: Q01DX009 (ip), vehicle: Klucel (hydroxypropylcellulose) (HPC)
[3] = dose: 12.5 mg/kg/injection, schedule: Q01DX009 (ip), vehicle: other
[4] = dose: 25.0 mg/kg/injection, schedule: Q01DX009 (ip), vehicle: other
[5] = dose: 50.0 mg/kg/injection, schedule: Q01DX009 (ip), vehicle: other
[6] = dose: 100.0 mg/kg/injection, schedule: Q01DX009 (ip), vehicle: other
[7] = dose: 50.0 mg/kg/injection, schedule: Q01DX005 (ip), vehicle: Klucel (hydroxypropylcellulose) (HPC)
[8] = dose: 100.0 mg/kg/injection, schedule: Q01DX005 (ip), vehicle: Klucel (hydroxypropylcellulose) (HPC)
[9] = dose: 200.0 mg/kg/injection, schedule: Q01DX005 (ip), vehicle: Klucel (hydroxypropylcellulose) (HPC)
[10] = dose: 60.0 mg/kg/injection, schedule: Q01DX005 (ip), vehicle: saline with Tween-80
[11] = dose: 120.0 mg/kg/injection, schedule: Q01DX005 (ip), vehicle: saline with Tween-80
[12] = dose: 240.0 mg/kg/injection, schedule: Q01DX005 (ip), vehicle: saline with Tween-80
[13] = dose: 60.0 mg/kg/injection, schedule: Q01DX005 (ip), vehicle: Klucel (hydroxypropylcellulose) (HPC)
[14] = dose: 120.0 mg/kg/injection, schedule: Q01DX005 (ip), vehicle: Klucel (hydroxypropylcellulose) (HPC)
[15] = dose: 240.0 mg/kg/injection, schedule: Q01DX005 (ip), vehicle: Klucel (hydroxypropylcellulose) (HPC)
[16] = dose: 50.0 mg/kg/injection, schedule: Q01DX009 (ip), vehicle: saline with Tween-80
[17] = dose: 100.0 mg/kg/injection, schedule: Q01DX009 (ip), vehicle: saline with Tween-80
[18] = dose: 200.0 mg/kg/injection, schedule: Q01DX009 (ip), vehicle: saline with Tween-80

O=C(C[n+]1ccc2ccccc2c1)c1ccc(-c2ccccc2)cc1
T/C (dose: 12.5 mg/kg/injection, schedule: Q01DX009 (ip), vehicle: Klucel (hydroxypropylcellulose) (HPC)): 118 % of control | T/C (dose: 25.0 mg/kg/injection, schedule: Q01DX009 (ip), vehicle: Klucel (hydroxypropylcellulose) (HPC)): 98 % of control and 116 % of control | T/C [1]: 101 % of control and 115 % of control | T/C [2]: 101 % of control and 122 % of control

CC(C)c1ccc(C(=O)CCCCl)cc1
T/C (dose: 100.0 mg/kg/injection, schedule: Q04DX003 (ip), vehicle: saline with Tween-80): 109 % of control | T/C (dose: 200.0 mg/kg/injection, schedule: Q04DX003 (ip), vehicle: saline with Tween-80): 100 % of control | T/C (dose: 400.0 mg/kg/injection, schedule: Q04DX003 (ip), vehicle: saline with Tween-80): 104 % of control

CN1CCN(CC(=O)N/N=C/c2ccc([N+](=O)[O-])o2)CC1
T/C [1]: 101 % of control and 94 % of control | T/C [2]: 99 % of control and 101 % of control | T/C (dose: 200.0 mg/kg/injection, schedule: Q01DX009 (ip), vehicle: Klucel (hydroxypropylcellulose) (HPC)): 107 % of control

Cc1ccc(S(=O)(=O)N/N=C/C=N/NS(=O)(=O)c2ccc(C)cc2)cc1
T/C [3]: 106 % of control | T/C [4]: 107 % of control | T/C [5]: 105 % of control | T/C [6]: 96 % of control | T/C (dose: 200.0 mg/kg/injection, schedule: Q01DX009 (ip), vehicle: other): 97 % of control

Clc1nc2nc(Cl)c(Cl)n2nc1Cl
T/C (dose: 6.25 mg/kg/injection, schedule: Q04DX002 (ip), vehicle: saline): 109 % of control | T/C (dose: 12.5 mg/kg/injection, schedule: Q04DX002 (ip), vehicle: saline): 107 % of control | T/C (dose: 25.0 mg/kg/injection, schedule: Q04DX002 (ip), vehicle: saline): 106 % of control

C/C(=N/N/C=N/S(C)(=O)=O)c1ccccc1
T/C [7]: 103 % of control | T/C [8]: 100 % of control | T/C [9]: 99 % of control

CC(CN1CC(=O)NC(=O)C1)N1CC(=O)NC(=O)C1 (stereo not drawn)
T/C (dose: 6.48 mg/kg/injection, schedule: Q04DX002 (ip), vehicle: saline): 117 % of control | T/C (dose: 50.0 mg/kg/injection, schedule: Q04DX002 (ip), vehicle: Klucel (hydroxypropylcellulose) (HPC)): 123 % of control | T/C (dose: 64.8 mg/kg/injection, schedule: Q04DX003 (ip), vehicle: saline): 119 % of control | T/C (dose: 77.8 mg/kg/injection, schedule: Q04DX002 (ip), vehicle: saline with Tween-80): 118 % of control | T/C (dose: 180.0 mg/kg/injection, schedule: Q04DX002 (ip), vehicle: saline): 156 % of control | T/C (dose: 180.0 mg/kg/injection, schedule: Q04DX003 (ip), vehicle: saline): 161 % of control | T/C (dose: 200.0 mg/kg/injection, schedule: Q04DX002 (ip), vehicle: Klucel (hydroxypropylcellulose) (HPC)): 153 % of control and 163 % of control | T/C (dose: 216.0 mg/kg/injection, schedule: Q04DX002 (ip), vehicle: saline with Tween-80): 152 % of control | T/C (dose: 300.0 mg/kg/injection, schedule: Q04DX002 (ip), vehicle: saline): 174 % of control | T/C (dose: 300.0 mg/kg/injection, schedule: Q04DX003 (ip), vehicle: saline): 214 % of control and 217 % of control | T/C (dose: 360.0 mg/kg/injection, schedule: Q04DX002 (ip), vehicle: saline with Tween-80): 195 % of control | T/C (dose: 400.0 mg/kg/injection, schedule: Q04DX002 (ip), vehicle: Klucel (hydroxypropylcellulose) (HPC)): 223 % of control and 94 % of control | T/C (dose: 500.0 mg/kg/injection, schedule: Q04DX002 (ip), vehicle: saline): 100 % of control | T/C (dose: 500.0 mg/kg/injection, schedule: Q04DX003 (ip), vehicle: saline): 118 % of control and 219 % of control | T/C (dose: 600.0 mg/kg/injection, schedule: Q04DX002 (ip), vehicle: saline with Tween-80): 213 % of control

CCCCCCC(/C=C/c1ccc(Cl)c(Cl)c1)=N\NC(=O)C[n+]1ccccc1
T/C (dose: 50.0 mg/kg/injection, schedule: Q01DX009 (ip), vehicle: saline): 99 % of control | T/C (dose: 100.0 mg/kg/injection, schedule: Q01DX009 (ip), vehicle: saline): 101 % of control | T/C (dose: 200.0 mg/kg/injection, schedule: Q01DX009 (ip), vehicle: saline): 101 % of control

C=C(C)c1nc(N)nc(N2CCCCC2)n1
T/C [7]: 98 % of control | T/C [8]: 102 % of control | T/C [9]: 117 % of control

CC(N)(CCS(=O)(=O)CP(=O)(O)O)C(=O)O (stereo not drawn)
T/C (dose: 60.0 mg/kg/injection, schedule: Q01DX005 (ip), vehicle: saline): 103 % of control | T/C (dose: 120.0 mg/kg/injection, schedule: Q01DX005 (ip), vehicle: saline): 97 % of control | T/C (dose: 240.0 mg/kg/injection, schedule: Q01DX005 (ip), vehicle: saline): 93 % of control

Cc1ncc([N+](=O)[O-])n1CCSC#N
T/C (dose: 6.25 mg/kg/injection, schedule: Q04DX003 (ip), vehicle: saline with Tween-80): 105 % of control | T/C (dose: 12.5 mg/kg/injection, schedule: Q04DX003 (ip), vehicle: saline with Tween-80): 96 % of control

CC(C)c1nc2c(n1Cc1ccccc1)C=C(C(=O)c1ccccc1)S(=O)(=O)C(C(=O)c1ccccc1)=C2
T/C [10]: 96 % of control | T/C [11]: 90 % of control | T/C [12]: 92 % of control

O=C1c2ccccc2-c2nnsc21
T/C [13]: 98 % of control | T/C [14]: 107 % of control | T/C [15]: 100 % of control

O=C1NNC(c2ccccc2)=Nc2[nH]ncc21
T/C (dose: 100.0 mg/kg/injection, schedule: Q04DX002 (ip), vehicle: saline with Tween-80): 96 % of control | T/C (dose: 200.0 mg/kg/injection, schedule: Q04DX002 (ip), vehicle: saline with Tween-80): 93 % of control | T/C (dose: 400.0 mg/kg/injection, schedule: Q04DX002 (ip), vehicle: saline with Tween-80): 93 % of control

CCC1=C(C)CCN(C)C1Cc1ccc(OC)cc1 (stereo not drawn)
T/C (dose: 15.0 mg/kg/injection, schedule: Q01DX005 (ip), vehicle: Klucel (hydroxypropylcellulose) (HPC)): 106 % of control | T/C (dose: 30.0 mg/kg/injection, schedule: Q01DX005 (ip), vehicle: Klucel (hydroxypropylcellulose) (HPC)): 98 % of control | T/C [13]: 100 % of control and 102 % of control

O=C(c1ccc2c(c1)OCO2)N1OC2C=CC1CC2 (stereo not drawn)
T/C [16]: 98 % of control | T/C [17]: 96 % of control | T/C [18]: 98 % of control

O=CNCc1ccc(S(=O)(=O)F)cc1
T/C [3]: 93 % of control | T/C [4]: 92 % of control | T/C [5]: 99 % of control | T/C [6]: 100 % of control

COc1ccc(Cl)c2c(=O)c3ccc4c(c3[nH]c12)C(=O)c1ccccc1C4=O
T/C [13]: 96 % of control | T/C [14]: 91 % of control | T/C [15]: 86 % of control

Oc1cc2c(cc1C(c1ccc3c(c1)OCO3)N1CCCCC1)OCO2 (stereo not drawn)
T/C [10]: 119 % of control | T/C [11]: 118 % of control | T/C [12]: 120 % of control

CCC(C)C(N)C(=O)N1CCCC1C(=O)NC(C(=O)O)C(C)CC (stereo not drawn)
T/C (dose: 8.25 mg/kg/injection, schedule: Q01DX005 (ip), vehicle: saline): 99 % of control | T/C (dose: 16.5 mg/kg/injection, schedule: Q01DX005 (ip), vehicle: saline): 102 % of control | T/C (dose: 33.0 mg/kg/injection, schedule: Q01DX005 (ip), vehicle: saline): 94 % of control | T/C (dose: 66.0 mg/kg/injection, schedule: Q01DX005 (ip), vehicle: saline): 102 % of control

Cc1nc2ccccc2nc1N1C(=O)c2ccccc2C1=O
T/C [10]: 97 % of control | T/C [11]: 99 % of control | T/C [12]: 95 % of control

O=c1[nH]cnc2n[nH]nc12
T/C (dose: 12.5 mg/kg/injection, schedule: Q01DX009 (ip), vehicle: saline with Tween-80): 107 % of control | T/C (dose: 25.0 mg/kg/injection, schedule: Q01DX009 (ip), vehicle: saline with Tween-80): 100 % of control | T/C [16]: 117 % of control | T/C [17]: 109 % of control | T/C [18]: 121 % of control

COc1ccc2nc(CC(C)C)c3c(c2c1)-c1ccccc1C3=O
T/C [7]: 91 % of control | T/C [8]: 87 % of control | T/C [9]: 89 % of control

NNS(=O)(=O)c1cccc([N+](=O)[O-])c1
T/C [3]: 107 % of control | T/C [4]: 98 % of control | T/C [5]: 103 % of control

Cc1ccc(S(=O)(=O)CC(=O)CC(=O)C(N)=O)cc1
T/C [10]: 109 % of control | T/C [11]: 108 % of control | T/C [12]: 104 % of control
